Experimental data published in patent publication US20180021277A1, “ANTI-VIRULENCE COMPOSITIONS AND METHODS” (priority 2012, published 2018).

Experiments:
MRSA USA300 [1] = assay: Murine MRSA bacteremia/sepsis model
[2] = molecular target: T1, AgrA_C from S. epidermidis / P3 DNA (Staphylococcus epidermidis, UniProt Q5HMY2); assay: Electrophoretic mobility shift assay of AgrA_C from S. epidermidis with P3 DNA; assay type: binding; conditions: 1 nM P3 DNA, 1 μM AgrA_C, increasing F19, 1% DMSO
T1 sequence (Q5HMY2 143-238): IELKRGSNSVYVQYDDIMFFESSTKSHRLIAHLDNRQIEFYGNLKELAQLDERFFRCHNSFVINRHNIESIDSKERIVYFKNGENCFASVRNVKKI
Description: FIG. 8 illustrates Electrophoretic mobility shift assay of AgrA_C from S. epidermidis as a function of F19 concentration. […] P3 DNA was radiolabeled with 32P. The concentrations of P3 DNA and AgrA_C were 1 nM and 1 μM, respectively. F19 was titrated in at increasing concentrations while maintaining a constant concentration of 1% DMSO.

MRSE Q-15 [3] = assay: Host cell damage assay (LDH leakage), MRSE; assay type: cell-based, Staphylococcus epidermidis; conditions: for % Damage (LDH Leakage): THP-1 human monocytes; for Damage (%): Table 2, control = 100
Description: (§1) Damage to host cells was measured by leakage of lactate dehydrogenase (LDH) with the CytoTox 96 Non-Radioactive Cytotoxicity LDH Assay Promega Kits G178 and G1782 according to manufacturer's instructions.
(§2) […] The bacteria were cultured at 37° C., in a shaking incubator for 6 h at which time 20 μL of bacterial culture was added to 5×10^4 THP-1 monocytes or J774.2 macrophages in 100 μL of cell media (DMEM for J774.2 cells and RPMI for THP-1 cells) in 96 well plates. Bacteria and macrophage/monocytes were incubated together for 40 min at 37° C. Plates were then spun at 250 g for 4 min and 50 μL of the supernatant was removed to a new 96 well plate. 50 μL of substrate mix+assay buffer were added and incubated at room temperature for 10-30 min depending upon the rate of product formation and stopped by addition of 50 μL stop solution. The colorometric products were read at 490 nm on a Victor 3 plate reader. The data presented are from experiments performed in triplicate.
(§3) Gram-positive pathogens compromise host cell defense factors by puncturing membranes of immune system cells. To examine F19 efficacy in preventing host cell damage by various pathogens cell lysis assays were carried out by measuring leakage of lactate dehydrogenase (LDH) from cells. F19 indeed inhibits pathogen-mediated lysis of human THP-1 monocytes and mouse macrophage cell line J7774.2 by a series of Gram-positive pathogens, including MRSA, MRSE, Streptococcus pyogenes, Streptococcus pneumoniae and Bacillus cereus in a dose dependent manner (Table 2 for MRSA, Table 4 for other pathogens).

[4] = tested on: MRSA strain lacking the agr operon (Lac Δagr); assay: Biofilm formation in MRSA strain lacking the agr operon; assay type: cell-based, Staphylococcus aureus; conditions: data not shown
MRSA USA300 [5] = assay: Biofilm measurement (crystal violet), MRSA; assay type: cell-based, Staphylococcus aureus; conditions: control = 100
Description: (§4) Bacterial cells were grown in Luria Broth overnight and an OD600 of 0.5 corresponding to 10^6 cfu/mL. 200 μL of this bacterial culture was plated with the presence of compound at various concentrations. Biofilm was allowed to form by placing the plate at 37° C. in the incubator without shaking. The plate was then washed 2× with water while being careful not to disturb the biofilm. Water was aspirated out and the plate was baked dry in a 60° C. incubator for 2 h. 125 μL of a 0.06% crystal violet solution ([…] in H2O) was added to each well and allowed to sit at room temperature for 15 minutes. […] The plate was inverted on a paper towel to dry overnight.125 μL of 30% acetic acid was added to each well and was left at room temperature for 15 minutes. The wells were mixed by pipetting and the solution was transferred to a clean 96-well plate and read at OD595.

MRSE Q-15 [6] = assay: Biofilm measurement (crystal violet), MRSE; assay type: cell-based, Staphylococcus epidermidis; conditions: control = 100
Description: as §4

MRSA USA300 [7] = assay type: in vivo, mice; conditions: topical twice a day for seven days, day 8
[8] = tested on: Strepococcus pyogenes AC7; assay: Host cell damage assay (LDH leakage), Streptococcus pyogenes; assay type: cell-based; conditions: THP-1 human monocytes
Description: as §1, §2, §3

MRSA USA300 [9] = assay: Host cell damage assay (LDH leakage), MRSA; assay type: cell-based, Staphylococcus aureus; conditions: for % Damage (LDH Leakage): THP-1 human monocytes; for Damage (%): Table 2, control = 100
Description: as §1, §2, §3

[10] = molecular target: T2, AgrA_C from Staphylococcus epidermidis (Staphylococcus epidermidis, UniProt Q5HMY2); assay: Microscale thermophoresis binding to AgrA_C from S. epidermidis; conditions: compared with S. aureus AgrA_C; data not shown
T2 sequence (Q5HMY2 143-238 limits assumed): T1 sequence (Q5HMY2 143-238)
Description: The AgrA C proteins from S. aureus and S. epidermidis were fluorescently labeled with Alexa Fluor 647 NHS ester and purified on Zeba spin columns. Compound F19 was diluted as a gradient through the capillaries while protein concentrations were maintained constant. Measurements were performed on a Nanotemper Monolith NT.115 apparatus. Lysozyme and known inhibitor N,N′,N″-triacetylchitotriose (Fisher Scientific) were used as controls.

CCCCCCc1cc(C(=O)COc2ccc(C(C)C)cc2)c(O)cc1O [4f-19]
mean bacterial load in blood compared to vehicle-treated animals (MRSA USA300 [1]; 30 mg/kg IP twice daily, day 6): nearly an order of magnitude lower | survival (MRSA USA300 [1]; F19 alone 30 mg/kg IP twice daily for 7 days): 100% | formation of the protein-nucleic acid complex (EMSA) [2]: prevent the formation of the protein—nucleic acid complex | % Damage (LDH Leakage) (MRSE Q-15 [3]; F19 1 μg/mL): 85.5 ± 2.6% | % Damage (LDH Leakage) (MRSE Q-15 [3]; F19 5 μg/mL): 62.6 ± 1.1% | % Damage (LDH Leakage) (MRSE Q-15 [3]; F19 10 μg/mL): 48.1 ± 1.1% | % Damage (LDH Leakage) (MRSE Q-15 [3]; F19 20 μg/mL): 26.5 ± 0.5% | % Damage (LDH Leakage) (MRSE Q-15 [3]; F19 30 μg/mL): 22.1 ± 0.6% | % Damage (LDH Leakage) (MRSE Q-15 [3]; F19 40 μg/mL): 19.6 ± 1.1% | Damage (%) (MRSE Q-15 [3]; F19 1 μg/ml): 85.5 ± 2.6% | Damage (%) (MRSE Q-15 [3]; F19 10 μg/ml): 48.1 ± 1.1% | Damage (%) (MRSE Q-15 [3]; F19 50 μg/ml): 15.7 ± 0.5% | biofilm formation in Lac Δagr [4]: biofilm inhibition was also observed | Biofilm (%) (MRSA USA300 [5]; F19 1 μg/ml): 78.8 ± 11.8% | Biofilm (%) (MRSA USA300 [5]; F19 10 μg/ml): 53.7 ± 7.9% | Biofilm (%) (MRSA USA300 [5]; F19 50 μg/ml): 20.6 ± 3.7% | Biofilm (%) (MRSE Q-15 [6]; F19 1 μg/ml): 92.2 ± 9.8% | Biofilm (%) (MRSE Q-15 [6]; F19 10 μg/ml): 69.3 ± 10.7% | Biofilm (%) (MRSE Q-15 [6]; F19 50 μg/ml): 34.1 ± 9.8% | bacterial load on the wounds compared to vehicle-treated or untreated wounds (MRSA USA300 [7]): did not reduce the bacterial load on the wounds | tissue burden of the wound, average log CFUs ± standard deviation (MRSA USA300 [7]; cephalothin 30 mg/kg, F19 20 mg/kg, vancomycin 30 mg/kg): 8.50±0.4 log CFU | % Damage (LDH Leakage) ([8]; F19 5 μg/mL): 97.4 ± 0.7% | % Damage (LDH Leakage) ([8]; F19 10 μg/mL): 88.4 ± 1.9% | % Damage (LDH Leakage) ([8]; F19 20 μg/mL): 73.6 ± 0.5% | % Damage (LDH Leakage) ([8]; F19 30 μg/mL): 56.2 ± 3.4% | % Damage (LDH Leakage) ([8]; F19 40 μg/mL): 38.7 ± 1.8% | % Damage (LDH Leakage) (MRSA USA300 [9]; F19 1 μg/mL): 62.0 ± 0.6% | % Damage (LDH Leakage) (MRSA USA300 [9]; F19 10 μg/mL): 44.2 ± 2.0% | % Damage (LDH Leakage) (MRSA USA300 [9]; F19 50 μg/mL): 29.1 ± 1.6% | Damage (%) (MRSA USA300 [9]; F19 1 μg/ml): 62.0 ± 0.6% | Damage (%) (MRSA USA300 [9]; F19 10 μg/ml): 44.2 ± 2.0% | Damage (%) (MRSA USA300 [9]; F19 50 μg/ml): 29.1 ± 1.6% | affinity to AgrA_C from Staphylococcus epidermidis [10]: Statistically identical affinity
